Reference: ChEMBL document CHEMBL5537147, “Development of membrane-targeting TPP+-chloramphenicol conjugates to combat methicillin-resistant staphylococcus aureus (MRSA) infections” (Eur J Med Chem, 2024)
Calls of active or inactive are those of the source. The rule behind the calls is not given here.

Experiments:
Acinetobacter baumannii [1] = test: Antibacterial activity against Acinetobacter baumannii 1309 assessed as inhibition of bacterial growth incubated for 16 to 18 hrs by CLSI based two-fold serial dilution method; format: functional; settings: time 16-18 hrs
Acinetobacter baumannii [2] = test: Antibacterial activity against Acinetobacter baumannii 1310 assessed as inhibition of bacterial growth incubated for 16 to 18 hrs by CLSI based two-fold serial dilution method; format: functional; settings: time 16-18 hrs
Pseudomonas aeruginosa [3] = test: Antibacterial activity against Pseudomonas aeruginosa 408 assessed as inhibition of bacterial growth incubated for 16 to 18 hrs by CLSI based two-fold serial dilution method; format: functional; settings: time 16-18 hrs
Pseudomonas aeruginosa [4] = test: Antibacterial activity against Pseudomonas aeruginosa 535 assessed as inhibition of bacterial growth incubated for 16 to 18 hrs by CLSI based two-fold serial dilution method; format: functional; settings: time 16-18 hrs
[5] = Cytotoxicity against human L02 cells assessed as inhibition of cell growth incubated for 24 hrs by MTT assay; format: toxicity, cell-based
[6] = Toxicity in ICR mouse infected with methicillin-resistant Staphylococcus aureus USA300 assessed as reduction in body weight at 20 mg/kg, sc administered as dual dose and measured after 3 days; format: organism-based; settings: in vivo, 72 h, time 3 day
Staphylococcus aureus [7] = test: Antibacterial activity against methicillin-resistant Staphylococcus aureus 330041 assessed as inhibition of bacterial growth incubated for 16 to 18 hrs by CLSI based two-fold serial dilution method; format: functional; settings: time 16-18 hrs
Staphylococcus aureus [8] = test: Antibacterial activity against methicillin-resistant Staphylococcus aureus 3390 assessed as inhibition of bacterial growth incubated for 16 to 18 hrs by CLSI based two-fold serial dilution method; format: functional; settings: time 16-18 hrs
Staphylococcus aureus [9] = test: Antibacterial activity against methicillin-resistant Staphylococcus aureus 3392 assessed as inhibition of bacterial growth incubated for 16 to 18 hrs by CLSI based two-fold serial dilution method; format: functional; settings: time 16-18 hrs
Staphylococcus aureus [10] = test: Antibacterial activity against methicillin-resistant Staphylococcus aureus USA300 assessed as inhibition of bacterial growth incubated for 16 to 18 hrs by CLSI based two-fold serial dilution method; format: functional; settings: time 16-18 hrs
HEK-293T = test: Cytotoxicity against HEK293T cells assessed as effect on cell viability at 35 ug/ml incubated for 24 hrs by MTT assay; format: toxicity, cell-based; settings: human, dose 35 µg/ml
Erythrocyte [11] = test: Hemolytic activity in sheep RBC at 20 ug/ml incubated for 1 hr by absorbance based analysis; format: toxicity, cell-based, Ovis aries; settings: dose 20 µg/ml
Staphylococcus aureus [12] = test: Bactericidal against methicillin-resistant Staphylococcus aureus USA300 assessed as elimination of bacterial colonies at 16 ug/ml measured within 3 hrs by time kill assay relative to control; format: functional; settings: dose 16 µg/ml
Staphylococcus aureus [13] = test: Bactericidal against methicillin-resistant Staphylococcus aureus USA300 assessed as reduction in bacterial colonies at 32 ug/ml measured upto 7 hrs by time kill assay; format: functional, organism-based; settings: dose 32.0 µg/ml
Staphylococcus aureus [14] = test: Bactericidal against methicillin-resistant Staphylococcus aureus USA300 assessed as total eradication of bacterial colonies at 1 to 2 times MIC measured upto 7 hrs by time kill assay; format: functional, organism-based
Staphylococcus aureus [15] = test: Resistance development in methicillin-resistant Staphylococcus aureus USA300 assessed as increase in MIC measured after 15 passages; format: functional, organism-based
Cell membrane [16] = test: Induction of cell membrane damage in methicillin-resistant Staphylococcus aureus USA300 assessed as appearance of wrinkles in cell surface at 8 ug/ml measured after 0.5 hrs by SEM analysis; format: cell membranes; settings: dose 8.0 µg/ml
Cell membrane [17] = test: Induction of cell membrane damage in methicillin-resistant Staphylococcus aureus USA300 assessed as disruption of cell membrane at 8 ug/ml measured after 0.5 hrs by SEM analysis; format: cell membranes; settings: dose 8.0 µg/ml
Cell membrane [18] = test: Disruption of cell membrane integrity in methicillin-resistant Staphylococcus aureus USA300 assessed as increase in fluorescence intensity measured after 0 to 100 mins by SYTOX Green staining based analysis; format: cell membranes; settings: dose 2-32 µg/ml, time 0-100 min
Staphylococcus aureus [19] = test: Antibacterial activity against methicillin-resistant Staphylococcus aureus USA300 infected in ICR mouse assessed as reduction in bacterial load in infected thigh at 20 mg/kg, sc pre-infected with bacteria for 2 hrs followed by compound administration as dual dose and measured after 3 days; format: functional, organism-based; settings: time 3.0 day
Erythrocyte [20] = test: Hemolytic activity in sheep RBC at 30 ug/ml incubated for 1 hr by absorbance based analysis; format: toxicity, cell-based, Ovis aries; settings: dose 30 µg/ml
Staphylococcus aureus [21] = test: Bactericidal against methicillin-resistant Staphylococcus aureus USA300 assessed as elimination of bacterial colonies at 16 ug/ml measured within 5 hrs by time kill assay relative to control; format: functional; settings: dose 16 µg/ml
Cell membrane [22] = test: Induction of cell membrane damage in methicillin-resistant Staphylococcus aureus USA300 assessed as appearance of wrinkles in cell surface at 16 ug/ml measured after 0.5 hrs by SEM analysis; format: cell membranes; settings: dose 16.0 µg/ml
Cell membrane [23] = test: Induction of cell membrane damage in methicillin-resistant Staphylococcus aureus USA300 assessed as disruption of cell membrane at 16 ug/ml measured after 0.5 hrs by SEM analysis; format: cell membranes; settings: dose 16.0 µg/ml
Cell membrane [24] = test: Disruption of cell membrane integrity in methicillin-resistant Staphylococcus aureus USA300 assessed as increase in fluorescence intensity measured after 0 to 30 mins by SYTOX Green staining based analysis; format: cell membranes; settings: dose 2-16 µg/ml, time 0-30 min
Staphylococcus aureus [25] = test: Antibacterial activity against methicillin-resistant Staphylococcus aureus USA300 infected in ICR mouse assessed as reduction in bacterial load in infected thigh at 10 mg/kg, sc pre-infected with bacteria for 2 hrs followed by compound administration as dual dose and measured after 3 days; format: functional, organism-based; settings: time 3.0 day
[26] = Toxicity in ICR mouse infected with methicillin-resistant Staphylococcus aureus USA300 assessed as reduction in body weight at 10 mg/kg, sc administered as dual dose and measured after 3 days; format: organism-based; settings: in vivo, 72 h, time 3 day

SMILES | MIC (Acinetobacter baumannii [1]) [µg/mL] | MIC (Acinetobacter baumannii [2]) [µg/mL] | MIC (Pseudomonas aeruginosa [3]) [µg/mL] | MIC (Pseudomonas aeruginosa [4]) [µg/mL] | IC50 at 24 h [5] [µg/mL] | Activity [6] | MIC (Staphylococcus aureus [7]) [µg/mL] | MIC (Staphylococcus aureus [8]) [µg/mL] | MIC (Staphylococcus aureus [9]) [µg/mL] | MIC (Staphylococcus aureus [10]) [µg/mL] | other results
CN[C@H](CC(C)C)C(=O)N[C@H]1C(=O)N[C@@H](CC(N)=O)C(=O)N[C@H]2C(=O)N[C@H]3C(=O)N[C@H](C(=O)N[C@H](C(=O)O)c4cc(O)cc(O)c4-c4cc3ccc4O)[C@H](O)c3ccc(c(Cl)c3)Oc3cc2cc(c3O[C@@H]2O[C@H](CO)[C@@H](O)[C@H](O)[C@H]2O[C@H]2C[C@](C)(N)[C@H](O)[C@H](C)O2)Oc2ccc(cc2Cl)[C@H]1O [VANCOMYCIN] | > 64 | > 64 | > 64 | > 64 | > 64 | Non-Toxic | – | – | – | – | –
Br.O=C(CCCCCCCCC[P+](c1ccccc1)(c1ccccc1)c1ccccc1)OC[C@H](NC(=O)C(Cl)Cl)[C@H](O)c1ccc([N+](=O)[O-])cc1 | > 64 | 32 | > 64 | > 64 | > 32 | Non-Toxic | 1 | 1 | 1 | 1 | Activity (HEK-293T): Non-Toxic; Activity (Erythrocyte [11]): Non-Toxic; Activity (Staphylococcus aureus [12]): 100%; Activity (Staphylococcus aureus [13]): Active; Activity (Staphylococcus aureus [14]): inactive; Activity (Staphylococcus aureus [15]): inactive; Activity (Cell membrane [16]): Active; Activity (Cell membrane [17]): Active; Activity (Cell membrane [18]): Dose-Dependent Effect; Activity (Staphylococcus aureus [19]): Active
Br.O=C(CCCCCCCCC[P+](c1ccc(C(F)(F)F)cc1)(c1ccc(C(F)(F)F)cc1)c1ccc(C(F)(F)F)cc1)OC[C@H](NC(=O)C(Cl)Cl)[C@H](O)c1ccc([N+](=O)[O-])cc1 | > 64 | > 64 | > 64 | > 64 | > 32 | – | 1 | 1 | 1 | 1 | –
Br.O=C(CCCCCCCCC[P+](c1ccc(F)cc1)(c1ccc(F)cc1)c1ccc(F)cc1)OC[C@H](NC(=O)C(Cl)Cl)[C@H](O)c1ccc([N+](=O)[O-])cc1 | > 64 | > 64 | > 64 | > 64 | > 64 | – | 1 | 2 | 2 | 2 | Activity (HEK-293T): Non-Toxic; Activity (Erythrocyte [20]): Non-Toxic; Activity (Staphylococcus aureus [21]): 100%; Activity (Staphylococcus aureus [13]): Active; Activity (Staphylococcus aureus [14]): inactive; Activity (Staphylococcus aureus [15]): inactive; Activity (Cell membrane [22]): Active; Activity (Cell membrane [23]): Active; Activity (Cell membrane [24]): Dose-Dependent Effect; Activity (Staphylococcus aureus [25]): inactive; Activity [26]: Non-Toxic
O=C(N[C@H](CO)[C@H](O)c1ccc([N+](=O)[O-])cc1)C(Cl)Cl [CHLORAMPHENICOL] | > 64 | > 64 | > 64 | > 64 | > 64 | Non-Toxic | > 64 | > 64 | > 64 | > 64 | Activity (Staphylococcus aureus [25]): inactive
O=C(O)CCCCCCCCC[P+](c1ccc(Cl)cc1)(c1ccc(Cl)cc1)c1ccc(Cl)cc1.[Br-] | > 64 | > 64 | > 64 | > 64 | 30.8 | – | > 64 | > 64 | > 64 | > 64 | –
Br.O=C(COCCOCCOCC[P+](c1ccc(F)cc1)(c1ccc(F)cc1)c1ccc(F)cc1)OC[C@@H](NC(=O)C(Cl)Cl)[C@@H](O)c1ccc([N+](=O)[O-])cc1 | > 64 | > 64 | > 64 | > 64 | > 64 | – | 8 | 8 | 8 | 8 | –
O=C(O)CCCCCCCCC[P+](c1ccc(F)cc1)(c1ccc(F)cc1)c1ccc(F)cc1.[Br-] | > 64 | > 64 | > 64 | > 64 | > 64 | – | > 64 | > 64 | > 64 | > 64 | –
O=C(O)CCC[P+](c1ccccc1)(c1ccccc1)c1ccccc1.[Br-] | > 64 | > 64 | > 64 | > 64 | > 64 | – | > 64 | > 64 | > 64 | > 64 | –
Br.Cc1ccc([P+](CCCCCCCCCC(=O)OC[C@H](NC(=O)C(Cl)Cl)[C@H](O)c2ccc([N+](=O)[O-])cc2)(c2ccc(C)cc2)c2ccc(C)cc2)cc1 | > 64 | > 64 | > 64 | > 64 | 14.7 | – | 0.5 | 0.5 | 0.5 | 0.5 | –
